{"source": "patent US10376584B2", "about": "“Stable pharmaceutical formulations of methylnaltrexone” (Progenics Pharmaceuticals, Inc., priority 2003, dated 2019)", "test": "Autoclaving of methylnaltrexone solutions (122° C., 15 lbs. pressure for 20 min), degradation products", "type": "physicochemical", "protocol": "Applicants have discovered that during the autoclaving process, methylnaltrexone in aqueous solution tends to degrade to a surprising extent. The amount of degradation resulting from simple autoclaving (122° C., 15 lbs. pressure for 20 min.) can be as high as […]. The degradation products are depicted in FIG. 1, and appear to include at least two predominant degradants having relative retention times (RRT) of 0.72 (2.828 minutes) and 0.89 (3.435 minutes) and, with other minor forms as can be observed. The degradant identified by the 0.72 RRT peak appears in small amounts, 0.074, immediately upon dissolving the methylnaltrexone into solution and increases overtime with storage or autoclaving 0.25%. The degradant identified by the 0.89 RRT peak appears only after storage over time or after autoclaving (<0.05% and 0.724%, respectively). Applicants also have discovered that methylnaltrexone is unstable in aqueous solutions when stored at room temperature or even at 4° C. for significant (but commercially necessary) periods of time such as 6 months, 12 months or even two years. Degradation occurs without regard to whether the aqueous solution was previously autoclaved or filter sterilized. It would be desirable to stabilize formulations of methylnaltrexone such that following the autoclaving process or following storage (or both autoclaving and storage), the amount of the total degradation products would be less than 2.0%, 1.5%, 1.0%, 0.5%, 0.25%, and even 0.125%.\nThe invention provides stable formulations of methylnaltrexone. By stable solutions of methylnaltrexone, it is meant that following autoclaving at 122° C., 15 lbs. pressure for 20 minutes, the methylnaltrexone degradation products resulting from such conditions are not more than 2% of the total methylnaltrexone present in a given solution. […]", "data": [{"compound": "C[N@+]1(CC2CC2)CC[C@]23c4c5ccc(O)c4O[C@H]2C(=O)CC[C@@]3(O)[C@H]1C5", "note": "[methylnaltrexone]", "values": [{"measurement": "levels of degradation products after autoclaving with buffering agents", "setting": "buffers in concentrations ranging from 0.25 mM to 25 mM", "value": "Acceptable levels of degradation products"}, {"measurement": "stability to autoclaving by adjustment of pH alone", "setting": "pH between 4.25 and 6", "value": "not sufficient to produce stable formulations"}, {"measurement": "pH of the autoclaved sample", "setting": "pH set between 3.0 and 6.0 with pH-adjusting acid or base prior to autoclaving, no buffer", "value": "about 7.0"}]}]}
